The source of these data is patent publication US12226412B2, “Heteroaryl-ketone fused azadecalin glucocorticoid receptor modulators” (Corcept Therapeutics, Inc., priority 2012, dated 2025).

Experiment [1] relates to induction of TAT by dexamethasone in HepG2 cells. As to the kind of experiment: HepG2 tyrosine aminotransferase (TAT) assay. The format is cell-based, human. The conditions noted are these: HepG2 cells, challenge of 100 nM dexamethasone; Ki from IC50 by Cheng and Prusoff equation. On the procedure:
Example 21. HepG2 Tyrosine Aminotransferase (TAT) Assay
Glucocorticoid mediated activation of TAT occurs by transactivation of glucocorticoid response elements in the TAT promoter by glucocorticoid receptor agonist complex.
TAT activity was measured as outlined in the literature by A. Ali et al., J. Med. Chem., 2004, 47, 2441-2452.
HepG2 cells were cultured using MEME media supplemented with 10% (v/v) foetal bovine serum; 2 mM L-glutamine and 1% (v/v) NEAA at 37° C., 5%/95% (v/v) CO2/air. The HepG2 cells were counted and adjusted to yield a density of 0.125×10^6 cells/ml in RPMI 1640 without phenol red, 10% (v/v) charcoal stripped FBS, 2 mM L-glutamine and seeded at 25,000 cells/well in 200 μl into 96 well, sterile, tissue culture micro titre plates, and incubated at 37° C., 5% CO2 for 24 hours
Growth media was removed and replaced with assay media {RPMI 1640 without phenol red, 2 mM L-glutamine+10 μM forskolin}. […] Compounds were serially half log diluted in 100% (v/v) dimethylsupfoxide from a 10 mM stock.
HepG2 cells were then lysed with 30 μl of cell lysis buffer containing a protease inhibitor cocktail for 15 minutes at 4° C. 155 μl of substrate mixture was then added containing 5.4 mM Tyrosine sodium salt, 10.8 mM alpha ketoglutarate and 0.06 mM pyridoxal 5′ phosphate in 0.1M potassium phosphate buffer (pH 7.4). After 2 hours incubation at 37° C. the reaction was terminated by the addition of 15 μl of 10M aqueous potassium hydroxide solution, and the plates incubated for a further 30 minutes at 37° C. The TAT activity product was measured by absorbance at […].
[compound] and fitting the data to a 4 parameter logistic equation.

The target of experiment [2] is T1, human recombinant GR (Homo sapiens, UniProt P04150).
T1 construct: purchased PanVera P2812
T1 sequence (P04150 1-777): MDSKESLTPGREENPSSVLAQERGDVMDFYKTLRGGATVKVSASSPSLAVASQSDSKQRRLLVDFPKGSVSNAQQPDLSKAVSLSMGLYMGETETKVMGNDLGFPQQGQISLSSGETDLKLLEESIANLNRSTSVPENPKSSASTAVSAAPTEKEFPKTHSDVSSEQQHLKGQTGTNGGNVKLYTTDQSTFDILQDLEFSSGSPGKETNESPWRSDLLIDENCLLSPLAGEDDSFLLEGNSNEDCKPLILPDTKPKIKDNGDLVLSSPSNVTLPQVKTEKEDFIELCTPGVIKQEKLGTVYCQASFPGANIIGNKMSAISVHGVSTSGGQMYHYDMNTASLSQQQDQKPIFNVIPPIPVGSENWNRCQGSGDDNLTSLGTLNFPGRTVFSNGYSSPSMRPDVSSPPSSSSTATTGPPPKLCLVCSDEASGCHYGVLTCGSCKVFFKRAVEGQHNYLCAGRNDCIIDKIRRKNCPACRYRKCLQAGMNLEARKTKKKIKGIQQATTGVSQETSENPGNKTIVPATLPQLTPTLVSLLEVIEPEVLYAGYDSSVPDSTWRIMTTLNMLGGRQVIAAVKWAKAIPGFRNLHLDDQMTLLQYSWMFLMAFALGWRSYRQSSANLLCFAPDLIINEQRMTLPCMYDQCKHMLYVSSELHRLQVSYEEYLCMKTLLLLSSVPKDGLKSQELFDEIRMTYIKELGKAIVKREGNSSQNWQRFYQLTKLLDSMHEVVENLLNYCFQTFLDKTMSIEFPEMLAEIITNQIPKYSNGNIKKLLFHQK
The experiment can be described thus: Human glucocorticoid receptor (GR) fluorescence polarisation (FP) binding assay. Particulars: human recombinant GR, fluorescence polarisation binding assay; read-out: GR binding. As to the method:
Human Glucocorticoid Receptor (GR) Fluorescence Polarisation (FP) Binding Assay
The following is a description of a FP assay for measuring compound inhibition of labelled glucocorticoid binding to the human recombinant GR.
The binding affinity of test compounds was determined using a FP binding assay using human recombinant GR (PanVera P2812) and a fluorescent labelled glucocorticoid ligand (Fluorome GS Red) (PanVera P2894). The presence of inhibitors prevents the formation of a GS Red/GR complex resulting in a decrease in the measured polarisation value. The change in polarisation value in the presence of test compounds is used to calculate the binding affinity of the compound for GR.
This assay was performed in 384 well, black, round-bottom, polypropylene micro titre plates in a final volume of 20 μl. The assay contained 5 μl 1 nM GR (final concentration), 5 μl 0.5 nM Fluorome GS Red (final concentration) in the presence of 10 μl test compounds. Positive control wells (high polarisation) receive, 10 μl 2% (v: v) DMSO vehicle (1% (v/v) final concentration)+5 μl 1 nM GR and 5 μl 0.5 nM Fluorome GS Red. […] Assay blank background wells (used for normalisation) receive 15 μl 1× GS screening buffer+5 μl GR.
Compounds were prepared as solubilised solids at 10 mM in DMSO. On the day of assay, an 8 point half-log serial dilution (55 μl DMSO+25 μl compound solution) was prepared. A 1:50 dilution (1 μl compound solution+49 μl 1× GR screening buffer) was prepared for each compound. The compounds were prepared at 2× final assay concentration.
The plates were mixed and incubated for 4 hour at room temperature.
10× GR screening buffer (100 mM potassium phosphate pH 7.4, 200 mM Na2MoO4, 1 mM EDTA, 20% (v/v) DMSO). To prepare 1× GR screening buffer, combine 1 ml 10× GR screening buffer (PanVera P2814)+1 ml stabilising peptide (PanVera P2815)+7.95 ml 4° C. MQ water. Add 50 μl 1M DTT, vortex and place on ice until use.

With `CCCn1cc(S(=O)(=O)N2CCC3=Cc4c(cnn4-c4ccc(F)cc4)C[C@]3(C(=O)c3ccccn3)C2)cn1` [Example 11CA, (R)-(1-(4-fluorophenyl)-6-((1-propyl-1H-pyrazol-4-yl)sulfonyl)-4,4a,5,6,7,8-hexahydro-1H-pyrazolo[3,4-g]isoquinolin-4a-yl)(pyridin-2-yl) methanone], the figures for the Ki in experiment [1] and in experiment [2] were less than 20 nM and less than 0.5 nM, respectively.

Regarding `Cc1ccnc(C(=O)[C@]23Cc4cnn(-c5ccc(F)cc5)c4C=C2CCN(S(=O)(=O)c2cccc(S(C)(=O)=O)c2)C3)c1` [Example 11AP, (R)-(1-(4-fluorophenyl)-6-((3-(methylsulfonyl)phenyl)sulfonyl)-4,4a,5,6,7,8-hexahydro-1H-pyrazolo[3,4-g]isoquinolin-4a-yl)(4-methylpyridin-2-yl)methanone], the figures for the Ki in experiment [1] and in experiment [2] were less than 20 nM and less than 0.5 nM, respectively.

Take `Cc1cc(S(=O)(=O)N2CCC3=Cc4c(cnn4-c4ccc(F)cc4)C[C@]3(C(=O)c3ncc(C)s3)C2)n(C)n1` [Example 12U, (R)-(6-((1,3-dimethyl-1H-pyrazol-5-yl)sulfonyl)-1-(4-fluorophenyl)-4,4a,5,6,7,8-hexahydro-1H-pyrazolo[3,4-g]isoquinolin-4a-yl)(5-methylthiazol-2-yl)methanone]: the values for the Ki in experiment [1] and in experiment [2] were 20 to 100 nM and greater than 1 nM, respectively.

As to `O=C(c1ccccn1)[C@]12Cc3cnn(-c4ccc(F)cc4)c3C=C1CCN(S(=O)(=O)c1cccc(F)c1)C2` [Example 5G, (R)-(1-(4-fluorophenyl)-6-((3-fluorophenyl)sulfonyl)-4,4a,5,6,7,8-hexahydro-1H-pyrazolo[3,4-g]isoquinolin-4a-yl)(pyridin-2-yl)methanone], the results for the Ki in experiment [1] and in experiment [2] were less than 20 nM and less than 0.5 nM, respectively.

Turning to `Cc1ccc(S(=O)(=O)N2CCC3=Cc4c(cnn4-c4ccc(F)cc4)C[C@]3(C(=O)c3ccccn3)C2)cc1C` [Example 11M, (R)-(6-((3,4-dimethylphenyl)sulfonyl)-1-(4-fluorophenyl)-4,4a,5,6,7,8-hexahydro-1H-pyrazolo[3,4-g]isoquinolin-4a-yl)(pyridin-2-yl)methanone], the Ki in experiment [1] was less than 20 nM; in experiment [2], less than 0.5 nM.

As to `Cc1ccnc(C(=O)[C@]23Cc4cnn(-c5ccc(F)cc5)c4C=C2CCN(S(=O)(=O)c2cc(F)c(F)c(F)c2)C3)c1` [Example 11X, (R)-(1-(4-fluorophenyl)-6-((3,4,5-trifluorophenyl)sulfonyl)-4,4a,5,6,7,8-hexahydro-1H-pyrazolo[3,4-g]isoquinolin-4a-yl)(4-methylpyridin-2-yl)methanone], the Ki is less than 20 nM in experiment [1] and less than 0.5 nM in experiment [2].

For `Cc1ccnc(C(=O)[C@]23Cc4cnn(-c5ccc(F)cc5)c4C=C2CCN(S(=O)(=O)c2cccc(C(F)(F)F)c2)C3)c1` [Example 11AG, (R)-(1-(4-fluorophenyl)-6-((3-(trifluoromethyl)phenyl)sulfonyl)-4,4a,5,6,7,8-hexahydro-1H-pyrazolo[3,4-g]isoquinolin-4a-yl)(4-methylpyridin-2-yl)methanone], the Ki in experiment [1] was less than 20 nM; in experiment [2], less than 0.5 nM.

Consider `Cc1cccc(S(=O)(=O)N2CCC3=Cc4c(cnn4-c4ccc(F)cc4)C[C@]3(C(=O)c3ncccn3)C2)c1` [Example 1J, (R)-(1-(4-fluorophenyl)-6-(m-tolylsulfonyl)-4,4a,5,6,7,8-hexahydro-1H-pyrazolo [3,4-g]isoquinolin-4a-yl)(pyrimidin-2-yl)methanone], for which the Ki is 20 to 100 nM in experiment [1] and less than 0.5 nM in experiment [2].

With `O=C(c1ccccn1)[C@]12Cc3cnn(-c4ccc(F)cc4)c3C=C1CCN(S(=O)(=O)c1cncc(N3CCCC3)c1)C2` [Example 10B, (R)-(1-(4-fluorophenyl)-6-((5-(pyrrolidin-1-yl)pyridin-3-yl)sulfonyl)-4,4a,5,6,7,8-hexahydro-1H-pyrazolo[3,4-g]isoquinolin-4a-yl)(pyridin-2-yl)methanone], the Ki in experiment [1] is less than 20 nM; in experiment [2], less than 0.5 nM.

Take `CCCn1cc(S(=O)(=O)N2CCC3=Cc4c(cnn4-c4ccc(F)cc4)C[C@]3(C(=O)c3cscn3)C2)cn1` [Example 11CZ, (R)-(1-(4-fluorophenyl)-6-((1-propyl-1H-pyrazol-4-yl)sulfonyl)-4,4a,5,6,7,8-hexahydro-1H-pyrazolo[3,4-g]isoquinolin-4a-yl)(thiazol-4-yl)methanone]: the results for the Ki in experiment [1] and in experiment [2] were less than 20 nM and less than 0.5 nM, respectively.

`O=C(c1nccs1)[C@]12Cc3cnn(-c4ccc(F)cc4)c3C=C1CCN(S(=O)(=O)c1cncc(N3CCCCC3)c1)C2` [Example 7, (R)-(1-(4-fluorophenyl)-6-((5-(piperidin-1-yl)pyridin-3-yl)sulfonyl)-4,4a,5,6,7,8-hexahydro-1H-pyrazolo[3,4-g]isoquinolin-4a-yl)(thiazol-2-yl)methanone]: the Ki in experiment [1] is 20 to 100 nM; in experiment [2] it was less than 0.5 nM.

`Cc1nc(S(=O)(=O)N2CCC3=Cc4c(cnn4-c4ccc(F)cc4)C[C@]3(C(=O)c3cc(C(F)(F)F)ccn3)C2)cn1C` [Example 11BV, (R)-(6-((1,2-dimethyl-1H-imidazol-4-yl)sulfonyl)-1-(4-fluorophenyl)-4,4a,5,6,7,8-hexahydro-1H-pyrazolo[3,4-g]isoquinolin-4a-yl)(4-(trifluoromethyl)pyridin-2-yl)methanone]: the Ki in experiment [1] is less than 20 nM; in experiment [2], less than 0.5 nM.

Consider `O=C(c1nccs1)[C@]12Cc3cnn(-c4ccc(F)cc4)c3C=C1CCN(S(=O)(=O)c1cccc(N3CCCC3)c1)C2` [Example 6A, (R)-(1-(4-fluorophenyl)-6-((3-(pyrrolidin-1-yl)phenyl)sulfonyl)-4,4a,5,6,7,8-hexahydro-1H-pyrazolo[3,4-g]isoquinolin-4a-yl)(thiazol-2-yl)methanone], for which the Ki in experiment [1] was no less than 100 nM; in experiment [2], less than 0.5 nM.

In the case of `CN1CCOc2cc(S(=O)(=O)N3CCC4=Cc5c(cnn5-c5ccc(F)cc5)C[C@]4(C(=O)c4ccccn4)C3)cnc21` [Example 11AB, (R)-(1-(4-fluorophenyl)-6-((4-methyl-3,4-dihydro-2H-pyrido [3,2-b][1,4]oxazin-7-yl)sulfonyl)-4,4a,5,6,7,8-hexahydro-1H-pyrazolo[3,4-g]isoquinolin-4a-yl)(pyridin-2-yl)methanone], the Ki in experiment [1] was 20 to 100 nM; in experiment [2], less than 0.5 nM.
